How the values were obtained:
[1] = In vivo delivery of lipid nucleic acid mixture by gavage, RT-qPCR in blood and lung; design: species or system C57 mice; conditions: FIG. 14, 6 hours, whole blood and lung
Protocol: 1. Preparation of lipid nucleic acid mixture: the mixture of lipid No. 11 or No. 12 with nucleic acid, and the mixture of the lipid combination of No. 1/2/4/9/14/18/19/20/21/22/23/24/25/26/27/28/29/30/32, No. 3/8/10/11/12/13, and No. 6/15/16/17/31 with nucleic acid were prepared by reverse evaporation and boiling method (refer to steps 2.1-2.2).
2. Gavage were performed on 6-8 weeks old male C57 mice: 200 μl/aminal, grouped as follows:
3. Sample collection: 6 hours after gavage, mouse whole blood (500 μl) and lung (110 mg) were collected by 1.5 mL TRIzol-LS or 3 mL TRIzol, respectively, homogenized and then frozen under −80° C. for storage.
4. […]

[2] = system: MRC-5 cells; test: Western blot of fibronectin/α-SMA after lipid-mediated delivery of anti-fibrotic HJT-sRNA, TGF-β1 stimulation; format: cell-based; conditions: FIG. 102; nucleic acid 400 nM; TGF-β1 3 ng/mL, 72 hours
Protocol: (§1) 3.3 Western blot detection of protein expression levels 3.3.1 MRC-5 cell (pulmonary embryonic fibroblast), and A549 cell (human lung adenocarcinoma cell) were cultured to logarithmic growth phase, and then plated into 12-well plates at a cell density of 6×10^5/1 mL medium/well; MRC-5 cells were cultured in Eagle's MEM medium (MEM, Gibco); A549 cells were cultured in Ham's F-12 medium (HyClone); followed by incubation overnight at 37° C., and the follow-up experiments were performed after the cells were attached to the walls.
(§2) 4) Lipid nucleic acid mixture: the mixture of lipid and nucleic acid prepared from the step 2 were added into cells and mixed, and the final concentration of nucleic acid was 400 nM.
(§3) 3.3.3 After 24 hours of treatment, the cells were stimulated with the stimulant (1 μg/mL poly (I:C) (P1530, Sigma-Aldrich) as double-stranded RNA viruses mimetics) or 3 ng/mL transforming growth factor TGF(31 (Pepro Tech)). […]

[3] = system: A549 cells; test: Western blot of knockdown protein after lipid-mediated siRNA delivery; format: cell-based, human; conditions: FIG. 82; reverse evaporation method; LAMP2, XPN2, Ssu72, CPSF4 or β-actin siRNA 400 nM
Protocol: as §1, §2, §3

[4] = In vivo intragastric delivery of small RNA with lipid No. 41, samples after 6 hours; design: species or system mice; conditions: each small RNA 1 nmol/animal
Protocol: [Experimental method] 6-8 weeks old mice, 22-24 g, were raised in SPF room of the Animal Center of the Institute of Basic Medical Sciences of Chinese Academy of Medical Sciences. The mice were fasted for 12 hours before intragastric administration. The mice were randomly divided into 3 groups: (1) control group, 400 μl DEPC-treated water, intragastric administration; (2) free uptake group, small RNA (PGY-sRNA-26, PGY-sRNA-32 and PGY-sRNA-23), each small RNA 1 nmol/animal, dissolved in 400 μl DEPC-treated water, intragastric administration; (3) lipid No. 41 group: a mixture of small RNA (PGY-sRNA-26 and PGY-sRNA-32) and lipid No. 41 prepared by heating method was intragastrically administered, each small RNA 1 nmol/animal, lipid No. 41 10 μl/animal, dissolved in 400 μl DEPC-treated water. All tissue and organ samples were collected after 6 hours of intragastric administration. All small RNAs were single-stranded RNA modified by 3p- terminal 2-O-methylation.

CCCCC/C=C\C/C=C\CCCCCCCC(=O)O[C@H](COC(=O)CCCCCCCCCCCCCCCCC)COP(=O)([O-])OCC[N+](C)(C)C [No. 11, trimethyl(2-{[(2R)-2-[(9Z, 12Z)-octadeca-9,12-dienoyloxy]-3-(octadecanoyloxy)propyl-phosphonato]oxy}ethyl) azanium]
entry of HJT-sRNA-m7 into blood and lung [1]: could promote entry of small fragments of nucleic acids into the blood and lung

CCCCC/C=C\C/C=C\CCCCCCCC(=O)O[C@H](COC(=O)CCCCCCCCCCCCCCC)COP(=O)([O-])OCC[N+](C)(C)C [No. 12, (2-{[(2R)-3-(hexadecanoyloxy)-2-[(9Z,12Z)-octadeca-9,12-dienoyloxy]propylphosphonato]oxy}ethyl) trimethylazanium]
entry of HJT-sRNA-m7 into blood and lung [1]: could promote entry of small fragments of nucleic acids into the blood and lung

CCCCCCCC/C=C\CCCCCCCCCCCC(=O)O[C@H](COC(=O)CCCCCCCCCCCCCCC)COP(=O)(O)OCCN [No. 40, (2-aminoethoxy) [(2R)-2-[(13Z)-docos-13-enoyloxy]-3-(hexadecanoyloxy)propoxy] phosphinic acid]
fibronectin protein expression after delivery of double-stranded HJT-sRNA-m7 (Western blot) [2]: mediated anti-fibrotic double-stranded RNA HJT-sRNA-m7 entry into MRC-5 cells to down-regulate fibronectin protein expression

CCCCCCCCCCCCCCCCCCC[C@@H](O)[C@@H](N)CO [No. 41, Sphinganine (d22:0)]
protein knockdown effect of delivered siRNA vs RNAiMAX (Western blot) [3]: significantly higher than the inhibitory effect of HJT-sRNA-m7 mediated by RNAiMAX
entry of small RNA into the blood ([4]; FIG. 108, lipid 10 μl/animal): could promote the entry of small RNA into the blood, protecting it from degradation in the blood
entry of small RNA into the stomach cells ([4]; FIG. 109, lipid 10 μl/animal): could promote the entry of small RNA into the stomach cells, protecting it from degradation in the stomach
entry of small RNA into small intestinal cells ([4]; FIG. 110, lipid 10 μl/animal): could promote the entry of small RNA into small intestinal cells, protecting it from degradation in the small intestine
entry of small RNA into the liver ([4]; FIG. 111, lipid 10 μl/animal): could promote the entry of small RNA into the liver, protecting it from degradation in the liver
